# Biological target: human IRAK4 (Homo sapiens (Human), UniProt Q9NWZ3)
# Experiment: IRAK4 kinase inhibition, Transcreener fluorescence polarization ADP assay
# Format: biochemical
# Conditions: recombinant full-length His6-IRAK4; 125 uM ATP; 90 min; Ki computed using ATP Km 642 uM
# Method: Compounds were assayed for inhibition of human IRAK4 and IRAK1 catalytic activity using recombinant enzyme produced from insect cells. Full-length IRAK4 protein, carrying an N-terminal His6-Tag, was obtained from Life Technologies (Carlsbad, Calif., USA). The IRAK1 construct was produced internally and was comprised of IRAK1 residues Arg194 to Ser712, preceded by an NH2-terminal His6 tag and the coding sequence for glutathione-S-transferase.
# Sequence of human IRAK4 (Q9NWZ3 whole entry): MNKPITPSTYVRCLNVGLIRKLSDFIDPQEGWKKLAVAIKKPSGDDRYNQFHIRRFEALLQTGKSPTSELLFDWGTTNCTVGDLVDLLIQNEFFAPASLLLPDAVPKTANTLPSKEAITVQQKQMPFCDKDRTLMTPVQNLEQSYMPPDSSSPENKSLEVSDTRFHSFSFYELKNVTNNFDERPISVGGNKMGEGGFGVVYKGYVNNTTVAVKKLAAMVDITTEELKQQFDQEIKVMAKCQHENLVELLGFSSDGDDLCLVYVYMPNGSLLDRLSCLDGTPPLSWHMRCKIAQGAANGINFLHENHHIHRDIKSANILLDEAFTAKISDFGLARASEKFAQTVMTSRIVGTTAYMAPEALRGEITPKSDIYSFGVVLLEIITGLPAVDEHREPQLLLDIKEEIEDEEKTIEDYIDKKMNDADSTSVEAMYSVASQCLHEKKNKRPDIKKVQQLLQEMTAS
row,Ki [nM],SMILES
1,19,"C[C@]1(CO)Cc2cc(NC(=O)c3cnn4cccnc34)c(N3CCN(CCO)CC3)cc2O1 [Example 87, N-[(2R)-6-[4-(2-Hydroxyethyl)piperazin-1-yl]-2-(hydroxymethyl)-2-methyl-3H-benzofuran-5-yl]pyrazolo[1,5-a]pyrimidine-3-carboxamide]"
2,7.6,"C[C@@]1(CO)Cc2cc(NC(=O)c3cnn4cccnc34)c(N3CCN(CCO)CC3)cc2O1 [Example 88, N-[(2S)-6-[4-(2-Hydroxyethyl)piperazin-1-yl]-2-(hydroxymethyl)-2-methyl-3H-benzofuran-5-yl]pyrazolo[1,5-a]pyrimidine-3-carboxamide]"
3,26,"CC1(C)Cc2cc(NC(=O)c3cnn4cccnc34)c(C3CCN(CC(F)F)CC3)cc2O1 [Example 89, N-[6-[1-(2,2-Difluoroethyl)-4-piperidyl]-2,2-dimethyl-3H-benzofuran-5-yl]pyrazolo[1,5-a]pyrimidine-3-carboxamide]"
4,43,"CC1(C)Cc2cc(NC(=O)c3cnn4cccnc34)c(C3CCN(CC(F)(F)F)CC3)cc2O1 [Example 90, N-[2,2-Dimethyl-6-[1-(2,2,2-trifluoroethyl)-4-piperidyl]-3H-benzofuran-5-yl]pyrazolo[1,5-a]pyrimidine-3-carboxamide]"
5,39,"CC1(C)Cc2cc(NC(=O)c3cnn4cc(C(F)F)cnc34)c(N3CCOCC3)cc2O1 [Example 91, 6-(Difluoromethyl)-N-(2,2-dimethyl-6-morpholino-3H-benzofuran-5-yl)pyrazolo[1,5-a]pyrimidine-3-carboxamide]"
6,29,"CC1(C)Cc2cc(NC(=O)c3cnn4cccnc34)c(N3CC[C@](C)(CO)C3)cc2O1 [Example 94, (S)—N-(6-(3-(hydroxymethyl)-3-methylpyrrolidin-1-yl)-2,2-dimethyl-2,3-dihydrobenzofuran-5-yl)pyrazolo[1,5-a]pyrimidine-3-carboxamide]"
7,25,"CC1(C)Cc2cc(NC(=O)c3cnn4cccnc34)c(N3CC[C@@](C)(CO)C3)cc2O1 [Example 95, (R)—N-(6-(3-(hydroxymethyl)-3-methylpyrrolidin-1-yl)-2,2-dimethyl-2,3-dihydrobenzofuran-5-yl)pyrazolo[1,5-a]pyrimidine-3-carboxamide]"
8,14,"CC[C@@]1(C)Cc2cc(NC(=O)c3cnn4cccnc34)c(N3CCOCC3)cc2O1 [Example 96, (S)—N-(2-ethyl-2-methyl-6-morpholino-2,3-dihydrobenzofuran-5-yl)pyrazolo[1,5-a]pyrimidine-3-carboxamide]"
9,2.8,"C[C@]1(CO)Cc2cc(NC(=O)c3cnn4cccnc34)c(N3CCN(CC(F)F)CC3)cc2O1 [Example 98, N-[(2R)-6-[4-(2,2-Difluoroethyl)piperazin-1-yl]-2-(hydroxymethyl)-2-methyl-3H-benzofuran-5-yl]pyrazolo[1,5-a]pyrimidine-3-carboxamide]"
10,3.3,"C[C@@]1(CO)Cc2cc(NC(=O)c3cnn4cccnc34)c(N3CCN(CC(F)F)CC3)cc2O1 [Example 99, N-[(2S)-6-[4-(2,2-difluoroethyl)piperazin-1-yl]-2-(hydroxymethyl)-2-methyl-3H-benzofuran-5-yl]pyrazolo[1,5-a]pyrimidine-3-carboxamide]"
11,32,"CC1(C)Cc2cc(NC(=O)c3cnn4cccnc34)c(N3CCc4cncn4CC3)cc2O1 [Example 101, N-[2,2-dimethyl-6-(5,6,8,9-tetrahydroimidazo[1,5-d][1,4]diazepin-7-yl)-3H-benzofuran-5-yl]pyrazolo[1,5-a]pyrimidine-3-carboxamide]"
12,190,"CC1(C)Cc2cc(NC(=O)c3cnn4cccnc34)c(-n3cnc(CO)c3)cc2O1 [Example 102, N-[6-[4-(hydroxymethyl)imidazo 1-1-yl]-2,2-dimethyl-3H-benzofuran-5-yl]pyrazolo[1,5-a]pyrimidine-3-carboxamide]"
13,88,"CC1(C)Cc2cc(NC(=O)c3cnn4cccnc34)c(-n3ccnc3)cc2O1 [Example 103, N-(6-imidazol-1-yl-2,2-dimethyl-3H-benzofuran-5-yl)pyrazolo[1,5-a]pyrimidine-3-carboxamide]"
14,22,"CC1CCCN1c1cc2c(cc1NC(=O)c1cnn3cccnc13)CC(C)(C)O2 (centres unmarked) [Example 104, N-[2,2-dimethyl-6-(2-methylpyrrolidin-1-yl)-3H-benzofuran-5-yl]pyrazolo[1,5-a]pyrimidine-3-carboxamide]"
15,720,"CC1(O)CN(c2cc3c(cc2NC(=O)c2cnn4cccnc24)CC(C)(C)O3)C1 [Example 105, N-[6-(3-hydroxy-3-methyl-azetidin-1-yl)-2,2-dimethyl-3H-benzofuran-5-yl]pyrazolo[1,5-a]pyrimidine-3-carboxamide]"
16,2.4,"CC1(C)Cc2cc(NC(=O)c3cnn4cccnc34)c(N3CCC4(CCOC4)CC3)cc2O1 [Example 106, N-(2,2-dimethyl-6-(2-oxa-8-azaspiro[4.5]decan-8-yl)-2,3-dihydrobenzofuran-5-yl)pyrazolo[1,5-a]pyrimidine-3-carboxamide]"

row,Ki [nM],SMILES
1,79,"CC1(C)Cc2cc(NC(=O)c3cnn4cccnc34)c(N3CCC4(COC4)C3)cc2O1 [Example 107, N-(2,2-dimethyl-6-(2-oxa-6-azaspiro[3.4]octan-6-yl)-2,3-dihydrobenzofuran-5-yl)pyrazolo[1,5-a]pyrimidine-3-carboxamide]"
2,79,"CC1(C)Cc2cc(NC(=O)c3cnn4cccnc34)c(N3CCC4(CCOC4)C3)cc2O1 (centres unmarked) [Example 108, N-(2,2-dimethyl-6-(2-oxa-7-azaspiro[4.4]nonan-7-yl)-2,3-dihydrobenzofuran-5-yl)pyrazolo[1,5-a]pyrimidine-3-carboxamide]"
3,4.2,"CC1(C)Cc2cc(NC(=O)c3cnn4cccnc34)c(N3CCC4(CCCC4O)CC3)cc2O1 (centres unmarked) [Example 109, N-(6-(1-hydroxy-8-azaspiro[4.5]decan-8-yl)-2,2-dimethyl-2,3-dihydrobenzofuran-5-yl)pyrazolo[1,5-a]pyrimidine-3-carboxamide]"
4,2.5,"CC1(C)Cc2cc(NC(=O)c3cnn4cccnc34)c(N3CCC4(CC3)CC(O)C4)cc2O1 [Example 110, N-(6-(2-hydroxy-7-azaspiro[3.5]nonan-7-yl)-2,2-dimethyl-2,3-dihydrobenzofuran-5-yl)pyrazolo[1,5-a]pyrimidine-3-carboxamide]"
5,4.8,"CC1(C)Cc2cc(NC(=O)c3cnn4cccnc34)c(N3CCC4(CC3)CNC4=O)cc2O1 [Example 111, N-[2,2-dimethyl-6-(3-oxo-2,7-diazaspiro[3.5]nonan-7-yl)-3H-benzofuran-5-yl]pyrazolo[1,5-a]pyrimidine-3-carboxamide]"
6,78,"CC1(C)Cc2cc(NC(=O)c3cnn4cccnc34)c(N3CC4C(C3)C4(F)F)cc2O1 (centres unmarked) [Example 112, N-(6-(6,6-difluoro-3-azabicyclo[3.1.0]hexan-3-yl)-2,2-dimethyl-2,3-dihydrobenzofuran-5-yl)pyrazolo[1,5-a]pyrimidine-3-carboxamide]"
7,320,"CC1(C)Cc2cc(NC(=O)c3cnn4cccnc34)c(-c3ccc(=O)[nH]c3)cc2O1 [Example 113, N-[2,2-Dimethyl-6-(6-oxo-1H-pyridin-3-yl)-3H-benzofuran-5-yl]pyrazolo[1,5-a]pyrimidine-3-carboxamide]"
8,17,"CC1(C)Cc2cc(NC(=O)c3cnn4cccnc34)c(N3CCC4(CC3)COC4)cc2O1 [Example 114, N-(2,2-Dimethyl-6-(2-oxa-7-azaspiro[3.5]nonan-7-yl)-2,3-dihydrobenzofuran-5-yl)pyrazolo[1,5-a]pyrimidine-3-carboxamide]"
9,9.5,"CC1(C)Cc2cc(NC(=O)c3cnn4cccnc34)c(N3CCC(O)C(F)C3)cc2O1 (centres unmarked) [Example 115, N-(6-(3-Fluoro-4-hydroxypiperidin-1-yl)-2,2-dimethyl-2,3-dihydrobenzofuran-5-yl)pyrazolo[1,5-a]pyrimidine-3-carboxamide]"
10,18,"CC1(C)Cc2cc(NC(=O)c3cnn4cccnc34)c(N3CCCNCC3)cc2O1 [Example 116, N-(6-(1,4-diazepan-1-yl)-2,2-dimethyl-2,3-dihydrobenzofuran-5-yl)pyrazolo[1,5-a]pyrimidine-3-carboxamide]"
11,17,"CC1(C)Cc2cc(NC(=O)c3cnn4cccnc34)c(N3CCCOCC3)cc2O1 [Example 117, N-(2,2-dimethyl-6-(1,4-oxazepan-4-yl)-2,3-dihydrobenzofuran-5-yl)pyrazolo[1,5-a]pyrimidine-3-carboxamide]"
12,14,"CC1(C)Cc2cc(NC(=O)c3cnn4cccnc34)c(N3CCOCC3)cc2S1(=O)=O [Example 118, N-[2,2-Dimethyl-6-(morpholin-4-yl)-1,1-dioxo-2,3-dihydro-benzothiophen-5-yl]pyrazolo[1,5-a]pyrimidine-3-carboxamide]"
13,16,"C[C@@]1(CO)Cc2cc(NC(=O)c3cnn4cccnc34)c(N3CCC(F)(F)CC3)cc2O1 [Example 121, (S)—N-(6-(4,4-Difluoropiperidin-1-yl)-2-(hydroxymethyl)-2-methyl-2,3-dihydrobenzofuran-5-yl)pyrazolo[1,5-a]pyrimidine-3-carboxamide]"
14,6,"C[C@]1(CO)Cc2cc(NC(=O)c3cnn4cccnc34)c(N3CCC(F)(F)CC3)cc2O1 [Example 122, (R)—N-(6-(4,4-difluoropiperidin-1-yl)-2-(hydroxymethyl)-2-methyl-2,3-dihydrobenzofuran-5-yl)pyrazolo[1,5-a]pyrimidine-3-carboxamide]"
15,5,"C[C@]1(CO)Cc2cc(NC(=O)c3cnn4cccnc34)c(N3CCC4(CCOC4)CC3)cc2O1 [Example 125, (R)—N-(2-(Hydroxymethyl)-2-methyl-6-(2-oxa-8-azaspiro[4.5]decan-8-yl)-2,3-dihydrobenzofuran-5-yl)pyrazolo[1,5-a]pyrimidine-3-carboxamide]"
16,5.7,"C[C@@]1(CO)Cc2cc(NC(=O)c3cnn4cccnc34)c(N3CCC4(CCOC4)CC3)cc2O1 [Example 126, (S)—N-(2-(hydroxymethyl)-2-methyl-6-(2-oxa-8-azaspiro[4.5]decan-8-yl)-2,3-dihydrobenzofuran-5-yl)pyrazolo[1,5-a]pyrimidine-3-carboxamide]"

# From patent publication US10988478B1, “Pyrazolo[1,5a]pyrimidine derivatives as IRAK4 modulators” (Genentech, Inc., priority 2015, dated 2021)
